Laboratory results taken from ChEMBL document CHEMBL6121066, “Structure-Activity Relationship Studies of DNA Methyltransferase 1 Monovalent Degraders” (J Med Chem, 2025).
Activity calls are given as the source filed them. The rule behind the calls is not given here.

Tests used:
[1] = tested on: HCT-116; experiment: Induction of molecular glue effect mediated DNMT1 degradation in human HCT-116 cells assessed as reduction in DNMT1 protein level at 100 nM preincubated with TAK-243 for 2 hrs followed by compound addition and measured after 24 hrs by Western blot analysis; format: cell-based
[2] = tested on: MDA-MB-468; experiment: Induction of molecular glue effect mediated DNMT1 degradation in human MDA-MB-468 cells assessed as reduction in DNMT1 protein level at 100 nM preincubated with MG132 for 2 hrs followed by compound addition and measured after 24 hrs by Western blot analysis; format: cell-based
[3] = tested on: HCT-116; experiment: Induction of molecular glue effect mediated DNMT1 degradation in human HCT-116 cells assessed as reduction in DNMT1 protein level at 500 nM measured after 2 hrs by Western blot analysis relative to control; format: cell-based; parameters: scale not given: the % may be the effect or the level left
[4] = tested on: MV4-11; experiment: Antiproliferative activity against human MV4-11 cells assessed as inhibition of cell growth at 0.177 to 15 uM incubated for 7 days by CCK8 assay; format: functional, cell-based; conditions: dose 0.177-15 µM, time 7.0 day
[5] = tested on: HCT-116; experiment: Induction of molecular glue effect mediated DNMT1 degradation in human HCT-116 cells assessed as reduction in DNMT1 protein level at 100 nM preincubated with MG132 for 2 hrs followed by compound addition and measured after 24 hrs by Western blot analysis; format: cell-based
[6] = tested on: HCT-116; experiment: Induction of molecular glue effect mediated DNMT3B degradation in human HCT-116 cells assessed as reduction in DNMT3B protein level at 500 nM incubated for 24 hrs by Western blot analysis; format: cell-based
[7] = tested on: NCI-H1299; experiment: Effect on DNMT1 mRNA level in human NCI-H1299 cells at 500 nM incubated for 24 hrs by RT-qPCR analysis; format: functional, cell-based
[8] = tested on: HCT-116; experiment: Induction of molecular glue effect mediated DNMT1 degradation in human HCT-116 cells transfected with Smurf2 siRNA assessed as reduction in DNMT1 protein level at 100 nM measured after 24 hrs by Western blot analysis; format: cell-based
[9] = tested on: HCT-116; experiment: Antiproliferative activity against human HCT-116 cells assessed as inhibition of cell growth upto 15 uM incubated for 7 days by CCK8 assay relative to control; format: functional; conditions: time 7 day, up to 15 µM
[10] = tested on: HCT-116; experiment: Induction of molecular glue effect mediated DNMT1 degradation in human HCT-116 cells transfected with NEDD4 siRNA assessed as reduction in DNMT1 protein level at 100 nM measured after 24 hrs by Western blot analysis; format: cell-based
[11] = tested on: HCT-116; experiment: Downregulation of DNMT1 protein level in human HCT-116 cells at 1 uM incubated for 12 hrs by MS-based global proteomic analysis; format: functional, cell-based
[12] = tested on: HCT-116; experiment: Induction of molecular glue effect mediated DNMT1 degradation in human HCT-116 cells transfected with WWP1 siRNA assessed as reduction in DNMT1 protein level at 100 nM measured after 24 hrs by Western blot analysis; format: cell-based
[13] = tested on: HCT-116; experiment: Induction of molecular glue effect mediated DNMT1 degradation in human HCT-116 cells assessed as reduction in DNMT1 protein level at 100 nM preincubated with lysosome inhibitor CQ for 2 hrs followed by compound addition and measured after 24 hrs by Western blot analysis; format: cell-based
[14] = tested on: HCT-116; experiment: Induction of molecular glue effect mediated DNMT1 degradation in human HCT-116 cells transfected with UHRF1 siRNA assessed as reduction in DNMT1 protein level at 100 nM measured after 24 hrs by Western blot analysis; format: cell-based
[15] = tested on: MDA-MB-468; experiment: Induction of molecular glue effect mediated DNMT1 degradation in human MDA-MB-468 cells assessed as reduction in DNMT1 protein level at 100 nM preincubated with MLN4924 for 2 hrs followed by compound addition and measured after 24 hrs by Western blot analysis; format: cell-based
[16] = tested on: NCI-H1299; experiment: Induction of molecular glue effect mediated DNMT1 degradation in human NCI-H1299 cells assessed as reduction in DNMT1 protein level at 100 nM preincubated with MG132 for 2 hrs followed by compound addition and measured after 24 hrs by Western blot analysis; format: cell-based
[17] = tested on: NCI-H1299; experiment: Induction of molecular glue effect mediated DNMT1 degradation in human NCI-H1299 cells assessed as reduction in DNMT1 protein level at 100 nM preincubated with MLN4924 for 2 hrs followed by compound addition and measured after 24 hrs by Western blot analysis; format: cell-based
[18] = tested on: HCT-116; experiment: Induction of molecular glue effect mediated DNMT1 degradation in human HCT-116 cells assessed as reduction in DNMT1 protein level by measuring maximal efficacy at 1 uM incubated for 24 hrs by Western blot analysis relative to control; format: cell-based
[19] = tested on: HCT-116; experiment: Induction of molecular glue effect mediated DNMT1 degradation in human HCT-116 cells assessed as reduction in DNMT1 protein level incubated for 24 hrs by Western blot analysis; format: cell-based
[20] = tested on: HCT-116; experiment: Effect on DNMT1 mRNA level in human HCT-116 cells at 500 nM incubated for 24 hrs by RT-qPCR analysis; format: functional, cell-based
[21] = tested on: HCT-116; experiment: Induction of molecular glue effect mediated DNMT1 degradation in human HCT-116 cells assessed as reduction in DNMT1 protein level at 100 nM preincubated with MLN4924 for 2 hrs followed by compound addition and measured after 24 hrs by Western blot analysis; format: cell-based
[22] = tested on: HCT-116; experiment: Induction of molecular glue effect mediated DNMT3A degradation in human HCT-116 cells assessed as reduction in DNMT3A protein level at 500 nM incubated for 24 hrs by Western blot analysis; format: cell-based
[23] = tested on: HCT-116; experiment: Induction of molecular glue effect mediated DNMT1 degradation in human HCT-116 cells assessed as reduction in DNMT1 protein level at 500 nM by Western blot analysis; format: cell-based; conditions: time 2-24 hrs
[24] = tested on: HCT-116; experiment: Induction of molecular glue effect mediated DNMT1 degradation in human HCT-116 cells assessed as reduction in DNMT1 protein level at 100 nM preincubated with heclin for 2 hrs followed by compound addition and measured after 24 hrs by Western blot analysis; format: cell-based
[25] = tested on: HCT-116; experiment: Induction of molecular glue effect mediated DNMT1 degradation in human HCT-116 cells assessed as reduction in DNMT1 protein level by measuring half-life at 500 nM preincubated with cycloheximide for 2 hrs followed by compound administration and measured after 24 hrs by Western blot analysis; format: cell-based
[26] = tested on: HCT-116; experiment: Induction of molecular glue effect mediated DNMT1 degradation in human HCT-116 cells assessed as reduction in DNMT1 protein level at 100 nM preincubated with TRAF6 inhibitor C25-140 for 2 hrs followed by compound addition and measured after 24 hrs by Western blot analysis; format: cell-based
[27] = tested on: HCT-116; experiment: Induction of molecular glue effect mediated DNMT1 degradation in human HCT-116 cells assessed as reduction in DNMT1 protein level at 500 nM measured after 24 hrs by Western blot analysis relative to control; format: cell-based; parameters: scale not given: the % may be the effect or the level left
[28] = tested on: MDA-MB-468; experiment: Effect on DNMT1 mRNA level in human MDA-MB-468 cells at 500 nM incubated for 24 hrs by RT-qPCR analysis; format: functional, cell-based

CCc1c(C#N)c(SC(C(N)=O)c2ccccc2)nc(N2CCC(N)CC2)c1C#N (stereo not drawn)
Activity [1]: inactive | Activity [2]: inactive | Activity [3]: < 30% | Activity [4]: Active | Activity [5]: inactive | Activity [6]: inactive | Activity [7]: inactive | Activity [8]: Active | inhibition (INH) [9]: <50% | Activity [10]: Active | Activity [11]: Active | Activity [12]: Active | Activity [13]: Active | Activity [14]: Not active; Partial Rescue Of Degradation Observed | Activity [15]: Active | Activity [16]: inactive | Activity [17]: Active | Emax [18]: 89% | Activity [19]: Dose-dependent-effect | Activity [20]: inactive | Activity [21]: Active | Activity [22]: inactive | Activity [23]: Time-dependent-effect | Activity [24]: Not active; Partial Rescue Of Degradation Observed | T1/2 [25]: < 4 h | Activity [26]: Active | Activity [27]: 100% | Activity [28]: inactive
